The source of these data is patent publication US8999940B2 (Ipsen Pharma S.A.S., priority 2008, dated 2015).

Where a SMILES comes first, the peptide text is derived from it. Where no end group is shown, it is not given here. [ ]: non-standard residue; d: D form. The star is where a group is joined. Tic(7-OH) = O=C(O)[C@@H]1Cc2ccc(O)cc2CN1; Desaminotyrosyl = O=C(CCc1ccc(O)cc1)*; Nle = CCCC[C@H](N)C(=O)O; Ac5c = NC1(C(=O)O)CCCC1; Aib = CC(C)(N)C(=O)O

The first assay has as its target T1, human recombinant GIP receptor (Homo sapiens, UniProt P48546).
T1 construct: expressed in transfected cells; host or cells: CHO-K1 clonal cells (membrane preparation)
T1 sequence (P48546 22-466): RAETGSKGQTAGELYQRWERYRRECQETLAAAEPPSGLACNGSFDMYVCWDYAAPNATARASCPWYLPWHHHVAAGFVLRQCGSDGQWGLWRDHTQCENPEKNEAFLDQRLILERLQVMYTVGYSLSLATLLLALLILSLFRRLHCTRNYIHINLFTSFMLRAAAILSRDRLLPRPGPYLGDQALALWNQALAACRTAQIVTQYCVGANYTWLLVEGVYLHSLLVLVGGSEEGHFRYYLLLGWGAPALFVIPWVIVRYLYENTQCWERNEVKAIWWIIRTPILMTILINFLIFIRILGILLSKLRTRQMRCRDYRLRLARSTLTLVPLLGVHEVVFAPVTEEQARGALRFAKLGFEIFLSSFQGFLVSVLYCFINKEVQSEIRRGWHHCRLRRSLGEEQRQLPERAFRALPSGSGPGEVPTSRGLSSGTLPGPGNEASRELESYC
The assay can be described thus: In vitro hGIP receptor binding assay.
Conditions: not given
As for the experimental part:
A. In Vitro hGIP Receptor Binding Assay […] The incubations were terminated by rapid filtration through GF/C filters (pre-soaked in 0.5% polyethylenimine) using a Brandel filtration manifold. Each tube and filter were then washed three times with 5-ml aliquots of ice-cold buffer.
Regarding `CCCC[C@H](NC(=O)[C@H](C)NC(=O)[C@@H](NC(=O)C(C)(C)NC(=O)[C@H](Cc1ccc(O)cc1)NC(=O)[C@H](CC(=O)O)NC(=O)[C@H](CO)NC(=O)[C@@H](NC(=O)[C@H](Cc1ccccc1)NC(=O)[C@@H](NC(=O)CNC(=O)[C@H](CCC(=O)O)NC(=O)C(C)(C)NC(=O)CCc1ccc(O)cc1)[C@@H](C)O)[C@@H](C)CC)[C@@H](C)CC)C(=O)N[C@@H](CC(=O)O)C(=O)N[C@@H](CCCCN)C(=O)N[C@H](C(=O)N[C@@H](Cc1c[nH]cn1)C(=O)N[C@@H](CCC(N)=O)C(=O)N[C@@H](CCC(N)=O)C(=O)N[C@@H](CC(=O)O)C(=O)N[C@@H](Cc1ccccc1)C(=O)N[C@H](C(=O)N[C@@H](CC(N)=O)C(=O)N[C@@H](Cc1c[nH]c2ccccc12)C(=O)N[C@@H](CC(C)C)C(=O)N[C@@H](CC(C)C)C(=O)N[C@@H](C)C(=O)N[C@@H](CCC(N)=O)C(=O)N[C@@H](CCCCN)C(N)=O)C(C)C)[C@@H](C)CC` [Example 2, (4Hppa^1, Aib^2,11, Nle^14)hGIP(1-30)-NH2] (Desaminotyrosyl-[Aib]EGTFISDY[Aib]IA[Nle]DKIHQQDFVNWLLAQK-NH2), the Ki was 20.3 nM.
Same read-out and setting: to `CC[C@H](C)[C@H](NC(=O)[C@H](CO)NC(=O)[C@H](Cc1ccc(O)cc1)NC(=O)[C@H](CC(=O)O)NC(=O)[C@H](CO)NC(=O)C1(NC(=O)[C@H](Cc2ccccc2)NC(=O)[C@@H](NC(=O)CNC(=O)[C@H](CCC(=O)O)NC(=O)C(C)(C)NC(=O)CCc2ccc(O)cc2)[C@@H](C)O)CCCC1)C(=O)N[C@@H](C)C(=O)N[C@@H](CCSC)C(=O)N[C@@H](CC(=O)O)C(=O)N[C@@H](CCCCN)C(=O)N[C@H](C(=O)N[C@@H](Cc1c[nH]cn1)C(=O)N[C@@H](CCC(N)=O)C(=O)N[C@@H](CCC(N)=O)C(=O)N[C@@H](CC(=O)O)C(=O)N[C@@H](Cc1ccccc1)C(=O)N[C@H](C(=O)N[C@@H](CC(N)=O)C(=O)N[C@@H](Cc1c[nH]c2ccccc12)C(=O)N[C@@H](CC(C)C)C(=O)N[C@@H](CC(C)C)C(=O)N[C@@H](C)C(=O)N[C@@H](CCC(N)=O)C(=O)N[C@@H](CCCCN)C(N)=O)C(C)C)[C@@H](C)CC` [Example 3, (4Hppa^1, Aib^2, A5c^7)hGIP(1-30)-NH2] belongs 5 nM.
The same measure, in the same setting: to `CC[C@H](C)[C@H](NC(=O)[C@H](CCCCN)NC(=O)[C@H](CC(=O)O)NC(=O)[C@H](CCSC)NC(=O)[C@H](C)NC(=O)[C@@H](NC(=O)C(C)(C)NC(=O)[C@H](Cc1ccc(O)cc1)NC(=O)[C@H](CC(=O)O)NC(=O)[C@H](CO)NC(=O)[C@@H](NC(=O)[C@H](Cc1ccccc1)NC(=O)[C@@H](NC(=O)CNC(=O)[C@H](CCC(=O)O)NC(=O)C(C)(C)NC(=O)CCc1ccc(O)cc1)[C@@H](C)O)[C@@H](C)CC)[C@@H](C)CC)C(=O)N[C@@H](Cc1c[nH]cn1)C(=O)N[C@@H](CCC(N)=O)C(=O)N[C@@H](CCC(N)=O)C(=O)N[C@@H](CC(=O)O)C(=O)N[C@@H](Cc1ccccc1)C(=O)N[C@H](C(=O)N[C@@H](CC(N)=O)C(=O)N[C@@H](Cc1c[nH]c2ccccc12)C(=O)N[C@@H](CC(C)C)C(=O)N[C@@H](CC(C)C)C(=O)N[C@@H](C)C(=O)N[C@@H](CCC(N)=O)C(=O)N[C@@H](CCCCN)C(N)=O)C(C)C` [Example 4, (4Hppa^1, Aib^2,11)hGIP(1-30)-NH2] (Desaminotyrosyl-[Aib]EGTFISDY[Aib]IAMDKIHQQDFVNWLLAQK-NH2) belongs 15.4 nM; to `CC[C@H](C)[C@H](NC(=O)[C@H](CO)NC(=O)[C@H](Cc1ccc(O)cc1)NC(=O)[C@H](CC(=O)O)NC(=O)[C@H](CO)NC(=O)[C@@H](NC(=O)[C@H](Cc1ccccc1)NC(=O)[C@@H](NC(=O)CNC(=O)[C@H](CCC(=O)O)NC(=O)C(C)(C)NC(=O)CCc1ccc(O)cc1)[C@@H](C)O)[C@@H](C)CC)C(=O)N[C@@H](C)C(=O)N[C@@H](CCSC)C(=O)N[C@@H](CC(=O)O)C(=O)N[C@@H](CCCCN)C(=O)N[C@H](C(=O)N[C@@H](Cc1c[nH]cn1)C(=O)N[C@@H](CCC(N)=O)C(=O)N[C@@H](CCC(N)=O)C(=O)N[C@@H](CC(=O)O)C(=O)N[C@@H](Cc1ccccc1)C(=O)N[C@H](C(=O)N[C@@H](CC(N)=O)C(=O)N[C@@H](Cc1c[nH]c2ccccc12)C(=O)N[C@@H](CC(C)C)C(=O)N[C@@H](CC(C)C)C(=O)N[C@@H](C)C(=O)N[C@@H](CCC(N)=O)C(=O)N[C@@H](CCCCN)C(N)=O)C(C)C)[C@@H](C)CC` [Example 6, (4Hppa^1, Aib^2)hGIP(1-30)-NH2], 1.58 nM; to `CCCC[C@H](NC(=O)[C@H](C)NC(=O)[C@@H](NC(=O)[C@H](CO)NC(=O)[C@H](Cc1ccc(O)cc1)NC(=O)[C@H](CC(=O)O)NC(=O)[C@H](CO)NC(=O)C1(NC(=O)[C@H](Cc2ccccc2)NC(=O)[C@@H](NC(=O)CNC(=O)[C@H](CCC(=O)O)NC(=O)C(C)(C)NC(=O)CCc2ccc(O)cc2)[C@@H](C)O)CCCC1)[C@@H](C)CC)C(=O)N[C@@H](CC(=O)O)C(=O)N[C@@H](CCCCN)C(=O)N[C@H](C(=O)N[C@@H](Cc1c[nH]cn1)C(=O)N[C@@H](CCC(N)=O)C(=O)N[C@@H](CCC(N)=O)C(=O)N[C@@H](CC(=O)O)C(=O)N[C@@H](Cc1ccccc1)C(=O)N[C@H](C(=O)N[C@@H](CC(N)=O)C(=O)N[C@@H](Cc1c[nH]c2ccccc12)C(=O)N[C@@H](CC(C)C)C(=O)N[C@@H](CC(C)C)C(=O)N[C@@H](C)C(=O)N[C@@H](CCC(N)=O)C(=O)N[C@@H](CCCCN)C(N)=O)C(C)C)[C@@H](C)CC` [Example 1, (4Hppa^1, Aib^2, A5c^7, Nle^14)hGIP(1-30)-NH2] (Desaminotyrosyl-[Aib]EGTF[Ac5c]SDYSIA[Nle]DKIHQQDFVNWLLAQK-NH2), 12.6 nM.
Turning to “[Tic(7-OH)][Aib]EGTFISDY[Ac5c]IAMDKIHQQDFVNWLLAQKGKKNDWKHNITQH-OH [Example 77, (7HO-Tic^1, Aib^2, A5c^11, His^43)hGIP(1-43)-OH]”, the Ki was 4.82 nM.
Same read-out and setting: in the case of `CC[C@H](C)[C@H](NC(=O)[C@H](CCCCN)NC(=O)[C@H](CC(=O)O)NC(=O)C1(NC(=O)[C@H](C)NC(=O)[C@@H](NC(=O)C2(NC(=O)[C@H](Cc3ccc(O)cc3)NC(=O)[C@H](CC(=O)O)NC(=O)[C@H](CO)NC(=O)[C@@H](NC(=O)[C@H](Cc3ccccc3)NC(=O)[C@@H](NC(=O)CNC(=O)[C@H](CCC(=O)O)NC(=O)C(C)(C)NC(=O)[C@@H](N)Cc3ccc(O)c(Br)c3)[C@@H](C)O)[C@@H](C)CC)CCCC2)[C@@H](C)CC)CCCC1)C(=O)N[C@@H](Cc1c[nH]cn1)C(=O)N[C@@H](CCC(N)=O)C(=O)N[C@@H](CCC(N)=O)C(=O)N[C@@H](CC(=O)O)C(=O)N[C@@H](Cc1ccccc1)C(=O)N[C@H](C(=O)N[C@@H](CC(N)=O)C(=O)N[C@@H](Cc1c[nH]c2ccccc12)C(=O)N[C@@H](CC(C)C)C(=O)N[C@@H](CC(C)C)C(=O)N[C@@H](C)C(=O)N[C@@H](CCC(N)=O)C(=O)N[C@@H](CCCCN)C(=O)NCC(=O)N[C@@H](CCCCN)C(=O)N[C@@H](CCCCN)C(=O)N[C@@H](CC(N)=O)C(=O)N[C@@H](CC(=O)O)C(=O)N[C@@H](Cc1c[nH]c2ccccc12)C(=O)N[C@@H](CCCCN)C(=O)N[C@@H](Cc1c[nH]cn1)C(=O)N[C@@H](CC(N)=O)C(=O)N[C@H](C(=O)N[C@H](C(=O)N[C@@H](CCC(N)=O)C(=O)N[C@@H](Cc1c[nH]cn1)C(=O)O)[C@@H](C)O)[C@@H](C)CC)C(C)C` [Example 72, (3Br-Tyr^1, Aib^2, A5c^11, 14, His^43)hGIP(1-43)-OH] it was 0.92 nM; in that of `CCCC[C@H](NC(=O)[C@H](C)NC(=O)[C@@H](NC(=O)C1(NC(=O)[C@H](Cc2ccc(O)cc2)NC(=O)[C@H](CC(=O)O)NC(=O)[C@H](CO)NC(=O)[C@@H](NC(=O)[C@H](Cc2ccccc2)NC(=O)[C@@H](NC(=O)CNC(=O)[C@H](CCC(=O)O)NC(=O)C(C)(C)NC(=O)[C@@H](N)Cc2ccc(O)c(Br)c2)[C@@H](C)O)[C@@H](C)CC)CCCC1)[C@@H](C)CC)C(=O)N[C@@H](CC(=O)O)C(=O)N[C@@H](CCCCN)C(=O)N[C@H](C(=O)N[C@@H](Cc1c[nH]cn1)C(=O)N[C@@H](CCC(N)=O)C(=O)N[C@@H](CCC(N)=O)C(=O)N[C@@H](CC(=O)O)C(=O)N[C@@H](Cc1ccccc1)C(=O)N[C@H](C(=O)N[C@@H](CC(N)=O)C(=O)N[C@@H](Cc1c[nH]c2ccccc12)C(=O)N[C@@H](CC(C)C)C(=O)N[C@@H](CC(C)C)C(=O)N[C@@H](C)C(=O)N[C@@H](CCC(N)=O)C(=O)N[C@@H](CCCCN)C(=O)NCC(=O)N[C@@H](CCCCN)C(=O)N[C@@H](CCCCN)C(=O)N[C@@H](CC(N)=O)C(=O)N[C@@H](CC(=O)O)C(=O)N[C@@H](Cc1c[nH]c2ccccc12)C(=O)N[C@@H](CCCCN)C(=O)N[C@@H](Cc1c[nH]cn1)C(=O)N[C@@H](CC(N)=O)C(=O)N[C@H](C(=O)N[C@H](C(=O)N[C@@H](CCC(N)=O)C(=O)N[C@@H](Cc1c[nH]cn1)C(=O)O)[C@@H](C)O)[C@@H](C)CC)C(C)C)[C@@H](C)CC` [Example 71, (3Br-Tyr^1, Aib^2, A5c^11, Nle^14, His^43)hGIP(1-43)-OH], 1.09 nM.

The same assay, now with this note: membranes of CHO-K1 cells expressing the human recombinant GIP receptor; 0.05 nM [125I]GIP; 100 minutes at 25° C.; read-out: Ki.
With “[3Cl-Tyr^1, Aib^2, A5c^11, Cys^43(succinimide-N—(CH2)2—C(O)NH—(CH2)3—O—CH2—CH(20K PEG)-CH2-20K PEG)]hGIP(1-43)-NH2 [Example 102]”, the Ki came out at 42.4 nM.

The term Ki denotes the equilibrium dissociation constant of an inhibitor or competing ligand from its target.
